Data taken from ChEMBL document CHEMBL5113550, “Optimization of Pyrimidine Compounds as Potent JAK1 Inhibitors and the Discovery of R507 as a Clinical Candidate” (ACS Med Chem Lett, 2022).
pIC50: −log10 of the molar value.

What was measured:
[1] = Inhibition of IL-2 stimulated IFN-gamma production in BALB/c mouse at 5 mg/kg, po pretreated for 30 mins followed by IL-2 stimulation and measured after 4 hrs by ELISA; format: functional; conditions: time 4.5 hrs
Cytochrome P450 3A4 [2] = biological target: T1, Cytochrome P450 3A4 (Homo sapiens, UniProt P08684); test: Inhibition of CYP3A4 (unknown origin) in presence of NADPH; format: ADME
T1 sequence (P08684 whole entry): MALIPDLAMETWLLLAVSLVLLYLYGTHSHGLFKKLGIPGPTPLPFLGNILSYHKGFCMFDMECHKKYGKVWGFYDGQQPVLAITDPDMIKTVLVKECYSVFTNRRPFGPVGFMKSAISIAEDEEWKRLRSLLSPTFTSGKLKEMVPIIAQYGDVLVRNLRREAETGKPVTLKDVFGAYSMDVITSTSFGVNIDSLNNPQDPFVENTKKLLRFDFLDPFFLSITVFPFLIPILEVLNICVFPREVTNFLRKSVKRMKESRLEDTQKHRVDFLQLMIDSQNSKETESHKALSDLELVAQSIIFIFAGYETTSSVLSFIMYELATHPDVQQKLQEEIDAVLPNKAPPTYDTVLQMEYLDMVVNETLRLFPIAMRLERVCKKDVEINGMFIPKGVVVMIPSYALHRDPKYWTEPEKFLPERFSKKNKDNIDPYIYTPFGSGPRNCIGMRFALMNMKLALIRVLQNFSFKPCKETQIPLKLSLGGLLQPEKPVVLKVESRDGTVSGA

Cytochrome P450 3A4 [3] = biological target: T1, Cytochrome P450 3A4; test: Inhibition of CYP3A4 (unknown origin) in absence of NADPH; format: ADME
[4] = Inhibition of IL-2 stimulated IFN-gamma production in BALB/c mouse at 40 mg/kg, po pretreated for 30 mins followed by IL-2 stimulation and measured after 4 hrs by ELISA; format: functional; conditions: time 4.5 hrs
[5] = biological target: Tyrosine-protein kinase JAK2 (Homo sapiens, UniProt O60674); test: Inhibition of JAK2 signaling pathway in human CHEP cells assessed as inhibition of EPO-induced cell survival preincubated for 1 hr followed by EPO addition and measured after 48 hrs by CellTiter-Glo luminescent assay; format: toxicity, cell-based
Chain of Tyrosine-protein kinase JAK2 (O60674 whole entry): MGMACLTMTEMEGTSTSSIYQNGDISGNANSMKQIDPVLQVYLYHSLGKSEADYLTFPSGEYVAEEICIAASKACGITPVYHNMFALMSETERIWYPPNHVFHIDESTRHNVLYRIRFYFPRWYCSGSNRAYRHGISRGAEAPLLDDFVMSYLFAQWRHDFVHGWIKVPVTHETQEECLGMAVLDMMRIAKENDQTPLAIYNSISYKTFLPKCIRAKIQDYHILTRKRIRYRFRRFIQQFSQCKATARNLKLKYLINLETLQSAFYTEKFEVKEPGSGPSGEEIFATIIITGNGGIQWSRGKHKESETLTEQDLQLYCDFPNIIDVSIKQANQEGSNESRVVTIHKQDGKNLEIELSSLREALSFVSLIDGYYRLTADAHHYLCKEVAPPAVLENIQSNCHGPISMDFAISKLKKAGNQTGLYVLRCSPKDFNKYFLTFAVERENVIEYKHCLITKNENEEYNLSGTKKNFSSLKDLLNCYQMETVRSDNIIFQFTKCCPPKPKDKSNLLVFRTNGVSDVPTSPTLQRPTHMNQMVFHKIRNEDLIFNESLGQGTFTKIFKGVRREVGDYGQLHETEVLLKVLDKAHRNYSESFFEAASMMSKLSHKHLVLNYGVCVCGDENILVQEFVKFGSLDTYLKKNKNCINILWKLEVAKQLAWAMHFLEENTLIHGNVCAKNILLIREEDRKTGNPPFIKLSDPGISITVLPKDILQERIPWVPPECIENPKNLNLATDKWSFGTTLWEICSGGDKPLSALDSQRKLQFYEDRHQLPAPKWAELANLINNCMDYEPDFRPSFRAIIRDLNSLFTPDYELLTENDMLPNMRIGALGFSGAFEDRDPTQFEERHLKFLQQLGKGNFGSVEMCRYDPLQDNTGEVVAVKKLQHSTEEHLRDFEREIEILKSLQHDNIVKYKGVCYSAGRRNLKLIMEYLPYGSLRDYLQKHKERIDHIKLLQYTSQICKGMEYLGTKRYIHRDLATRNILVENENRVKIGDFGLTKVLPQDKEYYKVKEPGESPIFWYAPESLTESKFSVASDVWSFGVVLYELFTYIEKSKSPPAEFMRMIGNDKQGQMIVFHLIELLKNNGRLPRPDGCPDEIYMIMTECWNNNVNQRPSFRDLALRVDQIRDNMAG

Rattus norvegicus [6] = test: Antiarthritic activity against collagen-induced arthritis Lewis rat model assessed as reduction in disease severity by measuring inhibition of hind limb clinical score at 50 mg/kg, po bid measured upto 20 days; format: functional; conditions: 480 h, time <= 20 day
Rattus norvegicus [7] = test: Antiarthritic activity against collagen-induced arthritis Lewis rat model assessed as reduction in disease severity by measuring inhibition of hind limb clinical score at 25 mg/kg, po bid measured upto 20 days; format: functional; conditions: 480 h, time <= 20 day
[8] = AUC in Sprague-Dawley rat 5 mg/kg, po; format: ADME, organism-based; parameters: dose 5 mg/kg, route po; conditions: in vivo
Rattus norvegicus [9] = test: Antiarthritic activity against collagen-induced arthritis Lewis rat model assessed as reduction in disease severity by measuring inhibition of hind limb clinical score at 100 mg/kg, po qd measured upto 20 days; format: functional; conditions: 480 h, time <= 20 day
[10] = Oral bioavailability in Sprague-Dawley rat 5 mg/kg; format: ADME, organism-based; conditions: in vivo
[11] = biological target: T2, Tyrosine-protein kinase SYK (Homo sapiens, UniProt P43405); test: Inhibition of SYK (unknown origin) assessed as reduction of IgM-stimulated ERK phosphorylation by Cell-based assay
Homo sapiens = species on record: Homo sapiens; test: Selectivity ratio of IC50 for inhibition of JAK2 signaling pathway in EPO-stimulated human CHEP cells to IC50 for inhibition of JAK1/JAK3 in human primary T-cells assessed as reduction of IL-2 stimulated STAT5 phosphorylation
[12] = biological target: T2, Tyrosine-protein kinase SYK; test: Inhibition of human full length recombinant N-terminal GST-tagged SYK expressed in baculovirus expression system at 250 nM by Z'-lyte assay
JAK3/JAK1 = JAK3/JAK1 (Homo sapiens, UniProt P23458+P52333); test: Inhibition of JAK1/JAK3 in human primary T-cells assessed as reduction of IL-2 stimulated STAT5 phosphorylation preincubated for 1 hr followed by IL-2 stimulation for 15 mins by FACS method; format: cell-based, T-cell
Chain of JAK3/JAK1 (P52333 whole entry): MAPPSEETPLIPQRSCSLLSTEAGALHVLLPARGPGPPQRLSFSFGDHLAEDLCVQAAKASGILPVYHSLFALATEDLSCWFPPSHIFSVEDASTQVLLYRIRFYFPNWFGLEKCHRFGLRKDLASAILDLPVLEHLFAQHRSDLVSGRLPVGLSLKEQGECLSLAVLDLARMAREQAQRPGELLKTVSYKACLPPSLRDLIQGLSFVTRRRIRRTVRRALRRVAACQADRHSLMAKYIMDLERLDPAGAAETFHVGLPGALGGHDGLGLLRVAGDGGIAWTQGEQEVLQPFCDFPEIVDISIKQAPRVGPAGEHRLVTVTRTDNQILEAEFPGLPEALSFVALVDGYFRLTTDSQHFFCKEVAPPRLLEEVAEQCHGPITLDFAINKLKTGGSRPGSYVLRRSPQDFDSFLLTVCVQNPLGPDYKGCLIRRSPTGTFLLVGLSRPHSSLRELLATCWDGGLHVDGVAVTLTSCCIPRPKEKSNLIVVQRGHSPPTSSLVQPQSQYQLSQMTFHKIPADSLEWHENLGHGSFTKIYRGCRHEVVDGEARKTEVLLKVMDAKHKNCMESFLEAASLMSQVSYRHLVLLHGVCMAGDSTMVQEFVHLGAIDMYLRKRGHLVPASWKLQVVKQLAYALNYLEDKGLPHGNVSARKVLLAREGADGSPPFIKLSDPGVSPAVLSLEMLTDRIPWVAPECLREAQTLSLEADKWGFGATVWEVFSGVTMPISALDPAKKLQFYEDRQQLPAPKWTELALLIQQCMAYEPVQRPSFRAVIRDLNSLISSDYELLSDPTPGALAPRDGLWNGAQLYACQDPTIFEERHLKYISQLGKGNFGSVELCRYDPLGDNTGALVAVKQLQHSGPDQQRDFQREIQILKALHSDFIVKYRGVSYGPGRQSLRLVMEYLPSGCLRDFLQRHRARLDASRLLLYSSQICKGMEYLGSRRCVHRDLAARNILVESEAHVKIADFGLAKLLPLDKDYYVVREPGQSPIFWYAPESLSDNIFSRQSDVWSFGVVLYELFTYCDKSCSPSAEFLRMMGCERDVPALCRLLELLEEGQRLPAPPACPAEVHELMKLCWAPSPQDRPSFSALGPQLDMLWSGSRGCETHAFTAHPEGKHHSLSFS
Chain of JAK3/JAK1 (P23458 whole entry): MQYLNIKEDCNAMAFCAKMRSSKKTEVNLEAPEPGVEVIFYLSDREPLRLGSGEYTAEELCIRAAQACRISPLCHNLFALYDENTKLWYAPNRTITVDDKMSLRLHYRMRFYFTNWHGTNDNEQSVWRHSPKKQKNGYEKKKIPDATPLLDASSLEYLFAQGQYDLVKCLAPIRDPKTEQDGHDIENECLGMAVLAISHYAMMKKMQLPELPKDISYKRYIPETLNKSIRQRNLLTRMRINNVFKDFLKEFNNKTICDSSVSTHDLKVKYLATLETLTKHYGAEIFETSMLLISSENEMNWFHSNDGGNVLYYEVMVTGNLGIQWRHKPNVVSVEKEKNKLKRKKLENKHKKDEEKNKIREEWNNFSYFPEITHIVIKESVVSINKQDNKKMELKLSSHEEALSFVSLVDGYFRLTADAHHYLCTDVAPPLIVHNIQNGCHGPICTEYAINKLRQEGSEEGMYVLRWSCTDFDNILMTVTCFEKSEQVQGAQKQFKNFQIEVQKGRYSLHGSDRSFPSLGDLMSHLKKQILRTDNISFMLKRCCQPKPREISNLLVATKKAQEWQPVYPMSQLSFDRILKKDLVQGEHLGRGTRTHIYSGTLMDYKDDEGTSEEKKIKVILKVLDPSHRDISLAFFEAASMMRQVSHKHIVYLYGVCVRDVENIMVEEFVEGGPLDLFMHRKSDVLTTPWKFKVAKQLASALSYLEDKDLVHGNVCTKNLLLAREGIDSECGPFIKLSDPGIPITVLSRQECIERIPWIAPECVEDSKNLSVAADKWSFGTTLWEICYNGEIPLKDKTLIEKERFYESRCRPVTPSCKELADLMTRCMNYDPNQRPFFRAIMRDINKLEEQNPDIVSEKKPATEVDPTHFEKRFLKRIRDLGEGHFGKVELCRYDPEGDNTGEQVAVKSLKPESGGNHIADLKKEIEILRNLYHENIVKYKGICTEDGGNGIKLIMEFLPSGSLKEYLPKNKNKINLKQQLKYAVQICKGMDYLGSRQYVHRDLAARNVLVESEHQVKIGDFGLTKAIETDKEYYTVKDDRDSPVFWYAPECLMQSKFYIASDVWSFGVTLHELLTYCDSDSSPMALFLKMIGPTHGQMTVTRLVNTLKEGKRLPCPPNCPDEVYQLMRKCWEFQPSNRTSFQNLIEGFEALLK

In the case of `COc1cc(Nc2ncc(C)c(Nc3ccc4oc(=O)[nH]c4c3)n2)cc(C(F)F)c1`, the inhibition in vivo at 5 mg/kg [1] was 66%, the pIC50 (Cytochrome P450 3A4 [2]) was 5.52 and the pIC50 (Cytochrome P450 3A4 [3]) was under 5.00. The inhibition in vivo at 40 mg/kg [4] was 92% and the pIC50 [5] was 6.76.
Work on `COc1cc(C)cc(Nc2ncc(C)c(Nc3ccc4oc(=O)[nH]c4c3)n2)c1` yielded an inhibition in vivo at 5 mg/kg [1] of 55%, a pIC50 (Cytochrome P450 3A4 [2]) of under 5.00 and a pIC50 (Cytochrome P450 3A4 [3]) of under 5.00. The inhibition in vivo at 40 mg/kg [4] was 91% and the pIC50 [5] was 6.45.
With `Cc1cnc(Nc2ccc(C#N)cc2)nc1Nc1ccc2oc(=O)[nH]c2c1` the inhibition in vivo at 40 mg/kg [4] was 0%.
`COc1cc(Nc2ncc(C)c(Nc3ccc4oc(=O)[nH]c4c3)n2)cc(C)c1F.O=S(=O)(O)c1ccccc1` gave an inhibition in vivo at 50 mg/kg (Rattus norvegicus [6]) of 98%, an inhibition in vivo at 25 mg/kg (Rattus norvegicus [7]) of 75% and an AUC [8] of 507 ng·h/mL. It also gave an inhibition in vivo at 100 mg/kg (Rattus norvegicus [9]) of 98% and a bioavailability [10] of 37%.
Work on `Cc1cnc(Nc2ccc(NS(C)(=O)=O)cc2)nc1Nc1ccc2oc(=O)[nH]c2c1` yielded an inhibition in vivo at 40 mg/kg [4] of 8%.
In the case of `COc1cc(CF)cc(Nc2ncc(C)c(Nc3ccc4oc(=O)[nH]c4c3)n2)c1`, the pIC50 (Cytochrome P450 3A4 [2]) was 5.10, the pIC50 (Cytochrome P450 3A4 [3]) was under 5.00 and the pIC50 [5] was 6.77.
Work on `Cc1cnc(Nc2cccc(S(N)(=O)=O)c2)nc1Nc1ccc2c(c1)NC(=O)CO2` yielded a pIC50 [11] of 6.15.
For `COc1cc(Nc2ncc(C)c(Nc3ccc4oc(=O)[nH]c4c3)n2)cc(OC)c1`, the pIC50 [5] was 6.88.
For `Cc1cnc(Nc2cccc(C#N)c2)nc1Nc1ccc2oc(=O)[nH]c2c1`, the inhibition in vivo at 40 mg/kg [4] was 1%.
Work on `COc1cc(Nc2ncc(C)c(Nc3ccc4oc(=O)[nH]c4c3)n2)cc(C)c1F` yielded a Ratio IC50 (Homo sapiens) of 24 and an inhibition [12] of under 50%.
`Cc1cnc(Nc2ccc(N3CCOCC3)nc2)nc1Nc1ccc2oc(=O)[nH]c2c1` gave a pIC50 (JAK3/JAK1) of 7.66, a bioavailability [10] of under 1% and an inhibition in vivo at 40 mg/kg [4] of 36%.
